Measurements published in publication PMC7594079, “Insights into the Function and Evolution of Taste 1 Receptor Gene Family in the Carnivore Fish Gilthead Seabream (Sparus aurata)” (International Journal of Molecular Sciences, 2020).

Tests used:
saT1R3/R3 = conditions: cells transfected with saT1R3 alone (double amount)
Source text: (§1) Previous studies have reported that heterodimeric coupling of saT1R complexes may not be the only mode of functional activation since these subunits, especially T1R3, can also couple as homodimers.
(§2) Figure 8 Comparisons of proline Log-dose response curves of activation in heterologous transfections of hetero- and homo-dimeric saT1R combinations of saT1R1/R3 (black dots), saT1R2a/R3 (white dots), saT1R2b/3 (black triangles), saT1R1/R1 (white triangles) and saT1R3/R3 (black squares). Response is measured as RLU mean ± SEM of four independent determinations normalized to the mean response of the same transfections stimulated with reduced assay medium (BME + 1% FBS), expressed as percentage relative to basal levels (BL).
(§3) saT1Rs (saT1R1, saT1R2a, saT1R2b saT1R3) and saGαi1-2 genes were RT-PCR amplified using 5’ and 3’ flanking primers carrying HindIII and XhoI restriction sites, respectively. Gel-purified fragments were cloned into pGEM-T Easy vectors, re-sequenced, digested and subcloned into pcDNA™3 (Invitrogen, Carlsbad, CA, USA). Effective saT1R cloning into pcDNA™3 was further verified by HindIII/XhoI digestion. […]

saT1R1/R1 = conditions: cells transfected with saT1R1 alone (double amount)
Source text: as §1, §2, §3

[1] = test system: pGL3-NFAT-luc-HEK293 (Cl.3) cells; assay type: cell-based
Source text: BL (Basal Levels) = 100% RLU. Different lowercase letters (a,b,c) on top of bars indicate significant differences (p < 0.05) between concentrations, assessed by one-way ANOVA followed by Tukey’s Multiple Comparison Test (GraphPad Prism version 5.00).

SMILES	response to Pro stimulation (saT1R3/R3)	response to Pro stimulation (saT1R1/R1)	doses toxic for the cells and/or inhibiting their stimulation [1] [mM]
O=C(O)[C@@H]1CCCN1 [Pro, Proline]	did not respond	did not respond	–
OC[C@H]1OC(O)[C@H](O)[C@@H](O)[C@@H]1O (stereo partly drawn) [D-Glucose]	–	–	300 to 500
